Experimental data taken from article PMC7663103, “Homo-Tris-Nitrones Derived from α-Phenyl-N-tert-butylnitrone: Synthesis, Neuroprotection and Antioxidant Properties” (International Journal of Molecular Sciences, 2020).

Target: T1, soybean lipoxygenase (Glycine max, UniProt P08170)
T1 construct: gene LOX1.1
T1 sequence (P08170 1-839): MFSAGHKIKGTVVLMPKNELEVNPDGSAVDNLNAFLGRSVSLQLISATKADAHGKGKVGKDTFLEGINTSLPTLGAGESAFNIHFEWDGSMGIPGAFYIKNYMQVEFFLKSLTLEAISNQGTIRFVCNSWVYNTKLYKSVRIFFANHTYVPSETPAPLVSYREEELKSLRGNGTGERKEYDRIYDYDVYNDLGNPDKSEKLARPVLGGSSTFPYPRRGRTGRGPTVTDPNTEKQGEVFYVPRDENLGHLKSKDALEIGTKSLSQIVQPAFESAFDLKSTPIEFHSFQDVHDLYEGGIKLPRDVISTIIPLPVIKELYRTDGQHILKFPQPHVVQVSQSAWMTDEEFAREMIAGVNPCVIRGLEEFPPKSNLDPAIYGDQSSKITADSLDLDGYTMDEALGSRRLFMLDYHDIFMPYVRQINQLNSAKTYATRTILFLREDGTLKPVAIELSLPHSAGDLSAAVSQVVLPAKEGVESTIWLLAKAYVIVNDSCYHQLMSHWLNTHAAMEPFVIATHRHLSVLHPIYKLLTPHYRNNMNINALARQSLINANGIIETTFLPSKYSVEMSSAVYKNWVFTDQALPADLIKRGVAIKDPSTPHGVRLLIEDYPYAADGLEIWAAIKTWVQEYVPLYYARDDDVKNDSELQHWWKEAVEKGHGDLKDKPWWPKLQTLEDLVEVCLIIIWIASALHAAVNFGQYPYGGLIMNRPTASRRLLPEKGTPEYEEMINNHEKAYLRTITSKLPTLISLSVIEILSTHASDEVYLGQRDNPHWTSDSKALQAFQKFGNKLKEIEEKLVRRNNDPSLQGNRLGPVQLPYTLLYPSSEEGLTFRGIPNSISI
Test: UV assay of sodium linoleate conversion to 13-hydroperoxylinoleic acid at […] nm
Format: biochemical
Details: read-out: LOX Inhibition (% or IC50 [μM]) (±SEM)

| IC50 | Structure (SMILES) |
| --- | --- |
| 100 ± 1.1 µM | C/[N+]([O-])=C/c1cc(/C=[N+](/C)[O-])cc(/C=[N+](/C)[O-])c1 [HTN1, (1. Z,1′Z,1″Z)-1,1′,1″-(Benzene-1,3,5-triyl)tris(N-methylmethanimineoxide)] |
| 70 ± 2.6 µM | [O-]/[N+](=C\c1cc(/C=[N+](\[O-])Cc2ccccc2)cc(/C=[N+](\[O-])Cc2ccccc2)c1)Cc1ccccc1 [HTN3, (1. Z,1′Z,1″Z)-1,1′,1″-(Benzene-1,3,5-triyl)tris(N-benzylmethanimineoxide)] |
